Measured values as given in PubChem BioAssay (NCI).
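The compound was tested at five concentrations on cells cultured in 96-well plates, with a 48-hour exposure period. GI50 is the concentration that inhibits growth by half. TGI is the concentration that stops growth completely.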

Experiments:
Assay in all cases: DTP human tumour cell line panel, 48 h
[1] = system: HCC-2998 colon
[2] = system: 786-0 renal
[3] = system: HOP-92 NSCLC
[4] = system: A549 NSCLC
[5] = system: SNB-19 CNS
[6] = system: SK-MEL-28 melanoma
[7] = system: SK-MEL-2 melanoma
[8] = system: NCI-H522 lung
[9] = system: TK-10 renal
[10] = system: K-562 leukemia
[11] = system: RPMI-8226 leukemia
[12] = system: HCT-116 colon
[13] = system: SK-OV-3 ovarian
[14] = system: LOX IMVI melanoma
[15] = system: SNB-75 CNS
[16] = system: MALME-3M melanoma
[17] = system: RXF 393 renal
[18] = system: EKVX NSCLC
[19] = system: M14 melanoma
[20] = system: SN12C renal
[21] = system: NCI-H23 lung
[22] = system: SF-295 CNS
[23] = system: COLO 205 colon
[24] = system: IGROV1 ovarian
[25] = system: HOP-62 NSCLC
[26] = system: SR leukemia
[27] = system: HT29 colon
[28] = system: PC-3 prostate

SMILES: COc1cc(OC)c(/C=C/S(=O)(=O)Cc2ccc(OC)c(NCC(=O)NO)c2)c(OC)c1
- TGI [1]: > 100000 nM
- GI50 [2]: 40.9 nM
- TGI [2]: > 100000 nM
- GI50 [3]: 77.7 nM
- TGI [3]: > 100000 nM
- GI50 [4]: 36.4 nM
- TGI [4]: > 100000 nM
- GI50 [5]: 43.4 nM
- TGI [5]: > 100000 nM
- GI50 [6]: > 23700 nM
- TGI [6]: > 100000 nM
- GI50 [7]: > 100000 nM
- TGI [7]: > 100000 nM
- GI50 [8]: < 10 nM
- GI50 [9]: > 100000 nM
- TGI [9]: > 100000 nM
- GI50 [10]: < 10 nM
- TGI [10]: > 100000 nM
- GI50 [11]: 45 nM
- TGI [11]: > 100000 nM
- GI50 [12]: 19.8 nM
- GI50 [13]: 69.7 nM
- TGI [13]: > 100000 nM
- GI50 [14]: < 10 nM
- TGI [14]: > 100000 nM
- GI50 [15]: < 10 nM
- TGI [15]: 72.6 nM
- GI50 [16]: > 100000 nM
- TGI [16]: > 100000 nM
- GI50 [17]: < 11 nM
- TGI [17]: > 100000 nM
- GI50 [18]: 58 nM
- TGI [18]: > 100000 nM
- GI50 [19]: 22 nM
- TGI [19]: > 100000 nM
- GI50 [20]: 55.5 nM
- TGI [20]: > 100000 nM
- GI50 [21]: 41.4 nM
- TGI [21]: > 100000 nM
- GI50 [22]: < 10 nM
- TGI [22]: > 100000 nM
- GI50 [23]: 31.6 nM
- TGI [23]: 119 nM
- GI50 [24]: 24.1 nM
- TGI [24]: > 100000 nM
- GI50 [25]: 47.2 nM
- TGI [25]: > 100000 nM
- GI50 [26]: < 10.4 nM
- TGI [26]: > 100000 nM
- GI50 [27]: 36.8 nM
- TGI [27]: 4840 nM
- GI50 [28]: 28.5 nM
- TGI [28]: > 100000 nM
